Test results from ChEMBL document CHEMBL1221257, “Hit-to-lead optimization of a series of carboxamides of ethyl 2-amino-4-phenylthiazole-5-carboxylates as novel adenosine A2A receptor antagonists” (Bioorg Med Chem Lett, 2010).

Columns and labels:
[1] = biological target: T1, Adenosine receptor A1 (Homo sapiens, UniProt P30542); experiment: Displacement of [3H]DPCPX from human adenosine A1 receptor expressed in CHO cells by liquid scintillation counting; type: cell-based
T1 sequence (P30542 whole entry): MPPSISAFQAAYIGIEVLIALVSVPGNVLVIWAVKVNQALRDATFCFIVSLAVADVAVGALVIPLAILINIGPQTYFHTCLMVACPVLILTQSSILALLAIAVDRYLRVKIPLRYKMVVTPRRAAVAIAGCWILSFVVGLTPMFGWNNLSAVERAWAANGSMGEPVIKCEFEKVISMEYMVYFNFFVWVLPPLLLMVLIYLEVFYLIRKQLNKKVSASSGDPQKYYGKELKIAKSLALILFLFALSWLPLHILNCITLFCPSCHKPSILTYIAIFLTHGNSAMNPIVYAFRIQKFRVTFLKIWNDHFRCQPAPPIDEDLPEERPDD

[2] = biological target: T2, Adenosine receptor A2a (Homo sapiens, UniProt P29274)
Description: Displacement of [3H]ZM241385 from human adenosine A2A receptor expressed in buculovirus system by liquid scintillation counting

[3] = biological target: T2, Adenosine receptor A2a; experiment: Displacement of [3H]ZM241385 from human adenosine A2A receptor expressed in buculovirus system at 10 uM by liquid scintillation counting
[4] = tested on: Mus musculus; experiment: Reversal of haloperidol-induced hypolocomotion in po dosed NMRI mouse model of Parkinson's disease measured for 20 mins; type: functional
[5] = tested on: Mus musculus; experiment: In-vivo displacement of [3H]SCH442416 from adenosine A2A receptor in po dosed NMRI mouse by liquid scintillation counting; type: functional
[6] = biological target: T3, Adenosine receptor A1 (Homo sapiens) (UniProt P30542); experiment: Displacement of [3H]DPCPX from human adenosine A1 receptor expressed in CHO cells at 2000 nM by liquid scintillation counting; type: cell-based
T3 sequence (whole entry): T1 sequence (P30542 whole entry)

[7] = biological target: T3, Adenosine receptor A1 (Homo sapiens); experiment: Displacement of [3H]DPCPX from human adenosine A1 receptor expressed in CHO cells at 10 uM by liquid scintillation counting; type: cell-based

T2 sequence (P29274 whole entry): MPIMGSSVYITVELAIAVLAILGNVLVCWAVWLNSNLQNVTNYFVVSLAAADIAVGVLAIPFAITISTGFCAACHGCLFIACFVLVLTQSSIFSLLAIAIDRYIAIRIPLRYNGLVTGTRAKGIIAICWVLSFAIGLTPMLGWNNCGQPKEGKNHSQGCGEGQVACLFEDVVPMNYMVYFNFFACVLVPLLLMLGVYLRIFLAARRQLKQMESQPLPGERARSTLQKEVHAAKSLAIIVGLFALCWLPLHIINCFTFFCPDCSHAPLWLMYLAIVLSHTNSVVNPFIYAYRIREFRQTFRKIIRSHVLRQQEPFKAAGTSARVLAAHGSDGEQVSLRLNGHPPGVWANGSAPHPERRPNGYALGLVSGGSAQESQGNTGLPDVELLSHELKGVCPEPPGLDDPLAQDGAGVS

## CCn1nnc(-c2sc(NC(=O)Cc3ccccc3)nc2-c2ccccc2)n1
[1]
  Ki: 1200 nM
[2]
  Ki: 460 nM

## Cc1nc(-c2sc(NC(=O)Cc3ccccc3)nc2-c2ccccc2)no1
[1]
  Ki: 260 nM
[2]
  Ki: 25 nM

## CCCC(=O)c1sc(NC(=O)c2ccco2)nc1-c1ccccc1
[1]
  Ki: 90 nM
[2]
  Ki: 62 nM

## O=C(Nc1nc(-c2ccccc2)c(C(=O)O)s1)c1ccco1
[3]
  Activity: 0%

## O=C(Cc1ccccc1)Nc1nc(-c2ccccc2)c(-c2ncon2)s1
[1]
  Ki: 1700 nM
[2]
  Ki: 710 nM

## CCn1c(=O)c2c(nc(/C=C/c3ccc(OC)c(OC)c3)n2C)n(CC)c1=O [ISTRADEFYLLINE]
[4]
  ED50: 0.13 mg/kg
[1]
  Ki: 3000 nM

## CCNC(=O)c1sc(NC(=O)c2ccco2)nc1-c1ccccc1
[3]
  Activity: 37%

## Cc1noc(-c2sc(NC(=O)c3ccccc3)nc2-c2ccccc2)n1
[1]
  Ki: 180 nM
[2]
  Ki: 190 nM

## Cc1nc(-c2sc(NC(=O)c3ccco3)nc2-c2ccccc2)no1
[1]
  Ki: 780 nM
[2]
  Ki: 700 nM

## O=C(Nc1nc(-c2ccccc2)c(-c2ncon2)s1)c1ccccc1
[1]
  Ki: 300 nM
[2]
  Ki: 330 nM

## Cc1noc(-c2sc(NC(=O)C3CC3)nc2-c2ccccc2)n1
[1]
  Ki: 41 nM
[2]
  Ki: 12 nM

## Cc1nc(-c2sc(NC(=O)C3CC3)nc2-c2ccccc2)no1
[4]
  Activity: Dose-dependent effect
  ED50: 7 mg/kg
[1]
  Ki: 150 nM
[2]
  Ki: 28 nM
[5]
  ED50: 5.8 mg/kg

## CCOC(=O)c1sc(NC(=O)c2ccco2)nc1-c1ccccc1
[1]
  Ki: 95 nM
[2]
  Ki: 13 nM

## N#Cc1sc(NC(=O)c2ccco2)nc1-c1ccccc1
[2]
  Ki: 290 nM

## Cc1noc(-c2sc(NC(=O)c3ccco3)nc2-c2ccccc2)n1
[1]
  Ki: 270 nM
[2]
  Ki: 200 nM

## CC(=O)Nc1nc(-c2ccccc2)c(-c2nc(C)no2)s1
[1]
  Ki: 370 nM
[2]
  Ki: 110 nM

## O=C(Nc1nc(-c2ccccc2)c(-c2ncon2)s1)C1CC1
[1]
  Ki: 310 nM
[2]
  Ki: 120 nM

## Cc1noc(-c2sc(NC(=O)Cc3ccccc3)nc2-c2ccccc2)n1
[1]
  Ki: 340 nM
[2]
  Ki: 57 nM

## COCCOc1ccc(N2CCN(CCn3ncc4c3nc(N)n3nc(-c5ccco5)nc43)CC2)cc1 [PRELADENANT]
[4]
  ED50: 0.4 mg/kg
[1]
  Ki: > 1000 nM
[2]
  Ki: 5 nM
[6]
  Activity: 30%

## Cc1nc(-c2sc(NC(=O)c3ccccc3)nc2-c2ccccc2)no1
[2]
  Ki: 83 nM
[7]
  Activity: 45%

## Cc1noc(-c2sc(NC(=O)CC(C)C)nc2-c2ccccc2)n1
[1]
  Ki: 27 nM
[2]
  Ki: 48 nM

## CCn1nnc(-c2sc(NC(=O)c3ccco3)nc2-c2ccccc2)n1
[1]
  Ki: 650 nM
[2]
  Ki: 94 nM

## CCS(=O)(=O)c1sc(NC(=O)c2ccco2)nc1-c1ccccc1
[3]
  Activity: 25%

## Cc1nc(-c2sc(NC(=O)CC(C)C)nc2-c2ccccc2)no1
[1]
  Ki: 82 nM
[2]
  Ki: 33 nM

## CCn1nnc(-c2sc(NC(=O)Cc3ccc(OC)c(OC)c3)nc2-c2ccccc2)n1
[1]
  Ki: 1600 nM
[2]
  Ki: 45 nM

## CC(C)CC(=O)Nc1nc(-c2ccccc2)c(-c2ncon2)s1
[1]
  Ki: 77 nM
[2]
  Ki: 340 nM

## CC(=O)Nc1nc(-c2ccccc2)c(-c2noc(C)n2)s1
[2]
  Ki: 190 nM
[7]
  Activity: 76%

## CCOCc1sc(NC(=O)c2ccco2)nc1-c1ccccc1
[1]
  Ki: 92 nM
[2]
  Ki: 190 nM

## O=C(Nc1nc(-c2ccccc2)c(-c2ncon2)s1)c1ccco1
[1]
  Ki: 230 nM
[2]
  Ki: 410 nM

## CCn1nnc(-c2sc(NC(=O)c3ccccc3)nc2-c2ccccc2)n1
[2]
  Ki: 220 nM
[7]
  Activity: 65%

## CCn1nnc(-c2sc(NC(=O)C3CC3)nc2-c2ccccc2)n1
[1]
  Ki: 210 nM
[2]
  Ki: 77 nM
